From the NIST ThermoML archive (doi:10.1016/j.tca.2012.05.025)
± gives the expanded uncertainty stated by the source.

Assays:
[1] = for surface tension liquid-gas: roughened platinum plate-detachment; for viscosity / mass density: 101 kPa, Liquid; for viscosity: Capillary tube (Ostwald / Ubbelohde) method; for mass density: Vibrating tube method
[2] = refractive index (Na D-line) (dimensionless); conditions: 101.33 kPa, Liquid, Standard Abbe refractometry
[3] = xn = mol fraction of the nth substance listed; conditions: x2 = 0; for surface tension liquid-gas: roughened platinum plate-detachment; for viscosity / mass density: 101 kPa, Liquid; for viscosity: Capillary tube (Ostwald / Ubbelohde) method; for mass density: Vibrating tube method
[4] = refractive index (Na D-line) (dimensionless); xn = mol fraction of the nth substance listed; conditions: 101 kPa, Liquid, Standard Abbe refractometry, x2 = 0

## CN(C)CCCO [3-dimethylamino-1-propanol]
[1]; 298.15 K
  surface tension liquid-gas: 29.01 ± 0.18 mN/m
  viscosity: 5.839 ± 0.12 mPa·s
  mass density: 880.25 ± 0.24 kg/m3
[1]; 303.15 K
  surface tension liquid-gas: 29.28 ± 0.18 mN/m
  viscosity: 4.963 ± 0.11 mPa·s
  mass density: 876.46 ± 0.24 kg/m3
[1]; 308.15 K
  surface tension liquid-gas: 28.88 ± 0.18 mN/m
[1]; 313.15 K
  surface tension liquid-gas: 28.47 ± 0.17 mN/m
  viscosity: 4.266 ± 0.091 mPa·s
  mass density: 868.42 ± 0.24 kg/m3
[1]; 318.15 K
  surface tension liquid-gas: 28.13 ± 0.17 mN/m
[1]; 323.15 K
  surface tension liquid-gas: 27.63 ± 0.17 mN/m
  viscosity: 3.253 ± 0.069 mPa·s
  mass density: 860.29 ± 0.24 kg/m3
[1]; 333.15 K
  surface tension liquid-gas: 26.81 ± 0.17 mN/m
  viscosity: 2.768 ± 0.059 mPa·s
  mass density: 852.1 ± 0.24 kg/m3
[1]; 343.15 K
  viscosity: 2.03 ± 0.043 mPa·s
  mass density: 843.77 ± 0.24 kg/m3
[2]; 293.15 K
  refractive index: 1.4368 ± 0.005
[2]; 298.15 K
  refractive index: 1.4347 ± 0.005
[2]; 303.15 K
  refractive index: 1.4326 ± 0.005
[2]; 308.15 K
  refractive index: 1.4305 ± 0.005
[2]; 313.15 K
  refractive index: 1.4285 ± 0.005
[2]; 318.15 K
  refractive index: 1.4264 ± 0.005
[2]; 323.15 K
  refractive index: 1.4243 ± 0.005
[2]; 328.15 K
  refractive index: 1.4222 ± 0.005
[2]; 333.15 K
  refractive index: 1.42 ± 0.005

## O [water]
[1]; 298.15 K
  surface tension liquid-gas: 72.09 ± 0.1 mN/m
  viscosity: 0.882 ± 0.018 mPa·s
[1]; 303.15 K
  surface tension liquid-gas: 71.27 ± 0.1 mN/m
  viscosity: 0.804 ± 0.017 mPa·s
[1]; 308.15 K
  surface tension liquid-gas: 70.44 ± 0.1 mN/m
[1]; 313.15 K
  surface tension liquid-gas: 69.66 ± 0.1 mN/m
  viscosity: 0.659 ± 0.014 mPa·s
[1]; 318.15 K
  surface tension liquid-gas: 68.83 ± 0.1 mN/m
[1]; 323.15 K
  surface tension liquid-gas: 67.95 ± 0.1 mN/m
  viscosity: 0.551 ± 0.012 mPa·s
  mass density: 988.03 ± 0.11 kg/m3
[1]; 333.15 K
  surface tension liquid-gas: 66.23 ± 0.1 mN/m
  viscosity: 0.47 ± 0.01 mPa·s
  mass density: 983.19 ± 0.11 kg/m3
[1]; 343.15 K
  viscosity: 0.407 ± 0.009 mPa·s
  mass density: 977.75 ± 0.11 kg/m3
[2]; 293.15 K
  refractive index: 1.333 ± 0.005
[2]; 298.15 K
  refractive index: 1.3325 ± 0.005
[2]; 303.15 K
  refractive index: 1.3319 ± 0.005
[2]; 308.15 K
  refractive index: 1.3314 ± 0.005
[2]; 313.15 K
  refractive index: 1.3307 ± 0.005
[2]; 318.15 K
  refractive index: 1.3299 ± 0.005
[2]; 323.15 K
  refractive index: 1.3291 ± 0.005
[2]; 328.15 K
  refractive index: 1.3282 ± 0.005
[2]; 333.15 K
  refractive index: 1.3273 ± 0.005

## O [water] + CN(C)CCCO
[3]; 298.15 K
  surface tension liquid-gas: 72.09 ± 2 mN/m
  viscosity: 0.882 ± 0.018 mPa·s
[3]; 303.15 K
  surface tension liquid-gas: 71.27 ± 2 mN/m
  viscosity: 0.804 ± 0.017 mPa·s
[3]; 308.15 K
  surface tension liquid-gas: 70.44 ± 2 mN/m
[3]; 313.15 K
  surface tension liquid-gas: 69.66 ± 2 mN/m
  viscosity: 0.659 ± 0.014 mPa·s
[3]; 318.15 K
  surface tension liquid-gas: 68.83 ± 2 mN/m
[3]; 323.15 K
  surface tension liquid-gas: 67.95 ± 2 mN/m
  viscosity: 0.551 ± 0.012 mPa·s
  mass density: 988.03 ± 0.11 kg/m3
[3]; 333.15 K
  surface tension liquid-gas: 66.23 ± 2 mN/m
  viscosity: 0.47 ± 0.01 mPa·s
  mass density: 983.19 ± 0.11 kg/m3
[3]; 343.15 K
  viscosity: 0.407 ± 0.009 mPa·s
  mass density: 977.75 ± 0.11 kg/m3
[4]; 293.15 K
  refractive index: 1.333 ± 0.005
[4]; 298.15 K
  refractive index: 1.3325 ± 0.005
[4]; 303.15 K
  refractive index: 1.3319 ± 0.005
[4]; 308.15 K
  refractive index: 1.3314 ± 0.005
[4]; 313.15 K
  refractive index: 1.3307 ± 0.005
[4]; 318.15 K
  refractive index: 1.3299 ± 0.005
[4]; 323.15 K
  refractive index: 1.3291 ± 0.005
[4]; 328.15 K
  refractive index: 1.3282 ± 0.005
[4]; 333.15 K
  refractive index: 1.3273 ± 0.005
